Results published in ChEMBL document CHEMBL1201862, “PubChem BioAssay data set” (2004).
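Five compound concentrations were applied to cells in 96-well plates for 48 hours; endpoints were derived by simple linear interpolation of the resulting dose-response curve. GI50 = concentration required for 50% inhibition of growth.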 Activity calls are given as the source filed them. Rule as the data show it: active = GI50 up to about 1.1 µM and inactive = higher.

How the values were obtained:
Assay in all cases: NCI anticancer screen, dose series, 48 h
786-0 = test system: 786-0
A498 = test system: A498
A549 = test system: A549
ACHN = test system: ACHN
BT-549 = test system: BT-549
CCRF-CEM = test system: CCRF-CEM
COLO 205 = test system: COLO 205
DU-145 = test system: DU-145
EKVX = test system: EKVX
HCC 2998 = test system: HCC 2998
HCT-116 = test system: HCT-116
HCT-15 = test system: HCT-15
HOP-62 = test system: HOP-62
HOP-92 = test system: HOP-92
HT-29 = test system: HT-29
Hs-578T = test system: Hs-578T
IGROV-1 = test system: IGROV-1
K562 = test system: K562
KM12 = test system: KM12
LOX IMVI = test system: LOX IMVI
M14 = test system: M14
MCF7 = test system: MCF7
MDA-MB-231 = test system: MDA-MB-231
MDA-MB-435 = test system: MDA-MB-435
MDA-N = test system: MDA-N
MOLT-4 = test system: MOLT-4
Malme-3M = test system: Malme-3M
NCI-H226 = test system: NCI-H226
NCI-H23 = test system: NCI-H23
NCI-H460 = test system: NCI-H460
NCI-H522 = test system: NCI-H522
NCI/ADR-RES = test system: NCI/ADR-RES
OVCAR-3 = test system: OVCAR-3
OVCAR-4 = test system: OVCAR-4
OVCAR-5 = test system: OVCAR-5
OVCAR-8 = test system: OVCAR-8
PC-3 = test system: PC-3
RPMI-8226 = test system: RPMI-8226
RXF 393 = test system: RXF 393
SF-268 = test system: SF-268
SF-295 = test system: SF-295
SF-539 = test system: SF-539
SK-MEL-28 = test system: SK-MEL-28
SK-MEL-5 = test system: SK-MEL-5
SK-OV-3 = test system: SK-OV-3
SN12C = test system: SN12C
SNB-19 = test system: SNB-19
SNB-75 = test system: SNB-75
SR = test system: SR
TK-10 = test system: TK-10
U-251 = test system: U-251
UACC-257 = test system: UACC-257
UACC-62 = test system: UACC-62
UO-31 = test system: UO-31
CAKI-1 = test system: CAKI-1
HL-60 = test system: HL-60
SK-MEL-2 = test system: SK-MEL-2
SW-620 = test system: SW-620
T47D = test system: T47D

For `CCN1C(=O)/C(=C2\SC(c3ccccc3)(c3ccccc3)c3ccccc32)SC1=S`, the GI50 (786-0) was 43.3 µM (inactive), the GI50 (A498) was 46 µM (inactive) and the GI50 (A549) was 87.9 µM (inactive). The GI50 (ACHN) was > 100 µM (inactive), the GI50 (BT-549) was 43.9 µM (inactive) and the GI50 (CCRF-CEM) was > 100 µM (inactive). For the same compound, the GI50 (COLO 205) was 64.4 µM (inactive), the GI50 (DU-145) was > 100 µM (inactive) and the GI50 (EKVX) was 75.9 µM (inactive). The GI50 (HCC 2998) was > 100 µM (inactive), the GI50 (HCT-116) was 47 µM (inactive) and the GI50 (HCT-15) was greater than 100 µM. For the same compound, the GI50 (HOP-62) was 27.5 µM (inactive), the GI50 (HOP-92) was 30.5 µM (inactive) and the GI50 (HT-29) was > 100 µM (inactive). For the same compound, the GI50 (Hs-578T) was 32.2 µM (inactive), the GI50 (IGROV-1) was 70.3 µM (inactive) and the GI50 (K562) was > 100 µM (inactive). The GI50 (KM12) was > 100 µM (inactive), the GI50 (LOX IMVI) was 38.6 µM (inactive) and the GI50 (M14) was 93.1 µM (inactive). For the same compound, the GI50 (MCF7) was > 100 µM (inactive), the GI50 (MDA-MB-231) was 72.3 µM (inactive) and the GI50 (MDA-MB-435) was > 100 µM (inactive). For the same compound, the GI50 (MDA-N) was > 100 µM (inactive), the GI50 (MOLT-4) was 96.4 µM (inactive) and the GI50 (Malme-3M) was > 100 µM (inactive). For the same compound, the GI50 (NCI-H226) was > 100 µM (inactive), the GI50 (NCI-H23) was > 100 µM (inactive) and the GI50 (NCI-H460) was > 100 µM (inactive). For the same compound, the GI50 (NCI-H522) was > 100 µM (inactive), the GI50 (NCI/ADR-RES) was > 100 µM (inactive) and the GI50 (OVCAR-3) was 51.9 µM (inactive). For the same compound, the GI50 (OVCAR-4) was 63.4 µM (inactive), the GI50 (OVCAR-5) was > 100 µM (inactive) and the GI50 (OVCAR-8) was 75.5 µM (inactive). For the same compound, the GI50 (PC-3) was 74.5 µM (inactive), the GI50 (RPMI-8226) was > 100 µM (inactive) and the GI50 (RXF 393) was > 100 µM (inactive). For the same compound, the GI50 (SF-268) was 36.3 µM (inactive), the GI50 (SF-295) was 24.4 µM (inactive) and the GI50 (SF-539) was 46.7 µM (inactive). For the same compound, the GI50 (SK-MEL-28) was 94.2 µM (inactive), the GI50 (SK-MEL-5) was > 100 µM (inactive) and the GI50 (SK-OV-3) was > 100 µM (inactive). For the same compound, the GI50 (SN12C) was > 100 µM (inactive), the GI50 (SNB-19) was 10.1 µM (inactive) and the GI50 (SNB-75) was 53.1 µM (inactive). For the same compound, the GI50 (SR) was 18.6 µM (inactive), the GI50 (TK-10) was > 100 µM (inactive) and the GI50 (U-251) was 44.7 µM (inactive). For the same compound, the GI50 (UACC-257) was > 100 µM (inactive), the GI50 (UACC-62) was > 100 µM (inactive) and the GI50 (UO-31) was > 100 µM (inactive).
For `O=c1c2cc(I)ccc2nc(-c2cccs2)n1-c1ccc(O)cc1`, the GI50 (786-0) was 16.3 µM (inactive), the GI50 (A549) was 10.2 µM (inactive) and the GI50 (ACHN) was 8.2 µM (inactive). For the same compound, the GI50 (BT-549) was 14.5 µM (inactive), the GI50 (CAKI-1) was 17.1 µM (inactive) and the GI50 (COLO 205) was 17.2 µM (inactive). The GI50 (DU-145) was 6.78 µM (inactive), the GI50 (EKVX) was 14.4 µM (inactive) and the GI50 (HCC 2998) was 16.1 µM (inactive). The GI50 (HCT-116) was 14.3 µM (inactive), the GI50 (HCT-15) was 12.4 µM and the GI50 (HL-60) was 7.82 µM (inactive). For the same compound, the GI50 (HOP-62) was 17.5 µM (inactive), the GI50 (HOP-92) was 10.1 µM (inactive) and the GI50 (HT-29) was 13 µM (inactive). For the same compound, the GI50 (IGROV-1) was 13.5 µM (inactive), the GI50 (K562) was 24.2 µM (inactive) and the GI50 (KM12) was 11.2 µM (inactive). For the same compound, the GI50 (LOX IMVI) was 11.6 µM (inactive), the GI50 (M14) was 15.8 µM (inactive) and the GI50 (MCF7) was 11.5 µM (inactive). For the same compound, the GI50 (MDA-MB-435) was 12 µM (inactive), the GI50 (MDA-N) was 14.6 µM (inactive) and the GI50 (MOLT-4) was 6.04 µM (inactive). For the same compound, the GI50 (Malme-3M) was 5.4 µM (inactive), the GI50 (NCI-H226) was 14.4 µM (inactive) and the GI50 (NCI-H23) was 16.7 µM (inactive). The GI50 (NCI-H460) was 14.9 µM (inactive), the GI50 (NCI-H522) was 13.1 µM (inactive) and the GI50 (NCI/ADR-RES) was 17.8 µM (inactive). The GI50 (OVCAR-3) was 9.51 µM (inactive), the GI50 (OVCAR-4) was 12.6 µM (inactive) and the GI50 (OVCAR-5) was 15.5 µM (inactive). The GI50 (OVCAR-8) was 15.5 µM (inactive), the GI50 (PC-3) was 10.6 µM (inactive) and the GI50 (RPMI-8226) was 3.37 µM (inactive). For the same compound, the GI50 (RXF 393) was 14.8 µM (inactive), the GI50 (SF-268) was 14.1 µM (inactive) and the GI50 (SF-295) was 12.6 µM (inactive). For the same compound, the GI50 (SF-539) was < 0.01 µM (active), the GI50 (SK-MEL-28) was 16 µM (inactive) and the GI50 (SK-MEL-2) was 15.6 µM (inactive). The GI50 (SK-MEL-5) was 11.6 µM (inactive), the GI50 (SN12C) was 15.5 µM (inactive) and the GI50 (SNB-19) was 16.6 µM (inactive). For the same compound, the GI50 (SR) was 17.4 µM (inactive), the GI50 (SW-620) was 22.2 µM (inactive) and the GI50 (T47D) was 1.56 µM (inactive). For the same compound, the GI50 (TK-10) was 10.7 µM (inactive), the GI50 (U-251) was 17.9 µM (inactive) and the GI50 (UACC-257) was < 0.01 µM (active). For the same compound, the GI50 (UACC-62) was 13.1 µM (inactive) and the GI50 (UO-31) was 10.4 µM (inactive).
